The values below come from patent publication US5245077A, “L-buthionine-S-sulfoximine and methods of making” (Cornell Research Foundation Inc., priority 1992, dated 1993).

Data set [1] has as its target T1, gamma-glutamylcysteine synthetase (Rattus norvegicus, UniProt P19468).
T1 sequence (P19468 1-637): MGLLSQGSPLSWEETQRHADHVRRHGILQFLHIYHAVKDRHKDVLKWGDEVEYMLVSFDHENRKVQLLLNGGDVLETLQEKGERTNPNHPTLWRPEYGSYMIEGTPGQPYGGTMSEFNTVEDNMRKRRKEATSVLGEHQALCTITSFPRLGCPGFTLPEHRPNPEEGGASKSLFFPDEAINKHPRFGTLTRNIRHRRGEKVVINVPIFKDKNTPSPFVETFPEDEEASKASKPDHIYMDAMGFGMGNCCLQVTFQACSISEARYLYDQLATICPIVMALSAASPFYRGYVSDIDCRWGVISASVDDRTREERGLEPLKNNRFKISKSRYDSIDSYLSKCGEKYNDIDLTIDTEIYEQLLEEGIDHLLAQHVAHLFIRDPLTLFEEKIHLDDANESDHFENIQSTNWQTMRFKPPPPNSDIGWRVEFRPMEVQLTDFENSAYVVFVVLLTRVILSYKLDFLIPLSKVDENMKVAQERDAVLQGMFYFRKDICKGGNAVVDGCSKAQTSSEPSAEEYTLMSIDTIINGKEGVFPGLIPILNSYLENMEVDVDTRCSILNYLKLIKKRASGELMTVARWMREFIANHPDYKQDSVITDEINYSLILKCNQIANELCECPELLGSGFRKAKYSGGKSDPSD
T1 sequence (P48508 1-274 partner): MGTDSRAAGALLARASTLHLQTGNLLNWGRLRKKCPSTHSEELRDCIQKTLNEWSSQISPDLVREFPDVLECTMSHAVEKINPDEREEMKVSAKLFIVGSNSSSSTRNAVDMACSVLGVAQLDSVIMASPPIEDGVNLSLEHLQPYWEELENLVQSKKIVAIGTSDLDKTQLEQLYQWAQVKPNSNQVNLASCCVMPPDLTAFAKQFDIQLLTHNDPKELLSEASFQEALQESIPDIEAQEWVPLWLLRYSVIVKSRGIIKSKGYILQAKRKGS
Conditions: cited from earlier work.

The subject of data set [2] is Tumors in mice. Conditions: with ionizing radiation and various chemotherapeutic agents; cited from earlier work.
The test system of data set [3] is Glutathione synthesis in tissues and cells. The settings on record: in vitro or in vivo; cited from earlier work.
Data set [4] relates to tissue glutathione levels. The data set is described as follows: Glutathione depletion in mice (tissue glutathione levels). The class given is in vivo. Conditions: i.p., 2 hours after injection.
Protocol: Tissue glutathione levels were determined as described in Griffith, O. W., Anal. Biochem. 106, 207-212, (1980).
Thirty two mice were given physiological saline, 4 mice were given 0.4 mmole/kg of L-buthionine-SR-sulfoximine, 4 mice were given 0.2 mmole/kg of L-buthionine-S-sulfoximine, 4 mice were given 0.2 mmoles/kg of L-buthionine-R-sulfoximine and 4 mice were given 0.4 mmole/kg or D-buthionine-SR-sulfoximine. All injections were given intraperitoneally. Two hours after injection, the mice were killed, and the glutathione levels in the brain, liver, pancreas, and kidney were determined.
For data set [5], the system named is cystine transport. Conditions: cited from earlier work.

Consider `CCCCS(=N)(=O)CC[C@H](N)C(=O)O` (stereo partly drawn) [L-buthionine-SR-sulfoximine, L-(S-n-butyl)homocysteine-SR-sulfoximine], for which, in data set [1], the “inhibition of gamma-glutamylcysteine synthetase (in words)” value is “potent and specific inhibitor of gamma-glutamylcysteine synthetase”. Further, the “effect on tumors in mice (in words)” value in data set [2] was “become glutathione depleted and more susceptible to the cytotoxic effects of ionizing radiation and various chemotherapeutic agents”. Besides, the “glutathione synthesis in tissues and cells (in words)” value in data set [3] is “Glutathione synthesis is decreased”. Further, the “glutathione level of kidney” value in data set [4] (kidney, L-SR and D-SR 0.4 mmole/kg, L-S and L-R 0.2 mmole/kg) was 27 % of control. Besides, in data set [4] (liver, SR 0.4 mmole/kg, S 0.2 mmole/kg), the “glutathione level of liver” value is 52 % of control. The “glutathione level of pancreas” value in data set [4] (pancreas, SR 0.4 mmole/kg, S 0.2 mmole/kg) is recorded as “about 42 % of control”. In addition, in data set [5], the “effect on cystine transport (in words)” value is reported as “deleterious effect on cystine transport”.
